Patent US11523607B2, “Sperm storage media comprising MHY 1485 for enhancing sperm quality and function” (UNIVERSIDADE DO PORTO, priority 2017, dated 2022)

Legend:
Assay type in all cases: cell-based
Human spermatozoa [1] = assay: Human spermatozoa viability after storage (eosin-nigrosin staining); details: 2 μg/mL in Sperm Preparation Medium, 37° C.
Protocol: (§1) FIG. 1—Human spermatozoa viability after storage during 120 minutes at 37° C. Spermatozoa were stored in Sperm Preparation Medium (ORIGIO, Måløv, Denmark) not supplemented (Control) or supplemented with an mTOR activator (MHY 1485). Spermatozoa were also incubated with an mTOR inhibitor (Rapamycin; Rap) as a negative control. Viability was assessed by the eosin-nigrosin staining method. Results are presented as mean±standard error of the mean (n=12); Significant results (P<0.05) are indicated as *-vs. Control.
(§2) We evaluated the use of an mTOR activator (MHY 1485) as an additive during sperm storage at 37° C. […] We assessed key sperm quality parameters, namely sperm viability and sperm motility, using standard methods, as described by the guidelines of the World Health Organization, with the supervision of a certified embryologist. We also evaluated the oxidative damages to sperm DNA (DNA fragmentation), proteins (protein carbonylation) and lipids (lipid peroxidation). Sperm DNA fragmentation was assessed using the Halosperm® kit (Halotech DNA SL, Madrid, Spain). Sperm protein carbonylation and lipid peroxidation were evaluated using specific antibodies (ABCAM®, Cambridge, USA) raised against 2,4-dinitrophenol groups and anti-4-hydroxynonenal groups (respectively). […]

Human spermatozoa [2] = assay: Human spermatozoa motility after storage; details: 2 μg/mL in Sperm Preparation Medium, 37° C.
Protocol: as §1, with “2—Human” for “1—Human”, “motility” for “viability”, “control.” for “control. Viability was assessed by the eosin-nigrosin staining method.”
as §2

Human spermatozoa [3] = assay: Human spermatozoa metabolism during storage (glucose consumption, lactate production by 1H-NMR); details: 2 μg/mL, 37° C.
Protocol: as §1, with “3—Human” for “1—Human”, “metabolism during” for “viability after”, “for” for “during”, “Sperm glucose consumption and lactate production were” for “Viability was”, “1H nuclear magnetic resonance.” for “the eosin-nigrosin staining method.”
We evaluated the use of an mTOR activator (MHY 1485) as an additive during sperm storage at 37° C. We added the mTOR activator (at a concentration of 2 μg/mL) to a commercial sperm storage medium (Sperm Preparation Medium®; Origio, Malay, Denmark) and stored the spermatozoa suspension (2 million spermatozoa per mL) in microtubes (at 37° C. in a 5% CO2 incubator) for up to 120 minutes, evaluating key parameters of quality and the degree of oxidative damages to those cells at regular intervals (0, 30 and 120 minutes). We assessed key sperm quality parameters, namely sperm viability and sperm motility, using standard methods, as described by the guidelines of the World Health Organization, with the supervision of a certified embryologist. We also evaluated the oxidative damages to sperm DNA (DNA fragmentation), proteins (protein carbonylation) and lipids (lipid peroxidation). Sperm DNA fragmentation was assessed using the Halosperm® kit (Halotech DNA SL, Madrid, Spain). Sperm protein carbonylation and lipid peroxidation were evaluated using specific antibodies (ABCAM®, Cambridge, USA) raised against 2,4-dinitrophenol groups and anti-4-hydroxynonenal groups (respectively). The metabolic alterations of spermatozoa were also evaluated by means of the proton magnetic resonance technique (1H-NMR), using a Varian 600 MHz spectrometer equipped with a 3 mm indirect detection probe with z-gradient (Varian, Palo Alto, USA). At the end of the storage, we evaluated the capacitation potential of the spermatozoa, by incubating the cells in a commercial medium (Lifeglobal®, Guilford, USA) and assessing the 3-nitrotyrosine levels using specific antibodies (ABCAM®, Cambridge, USA). An mTOR inhibitor (Rapamycin at a concentration of 0,1 μg/mL) was used as a negative control.

Human spermatozoa [4] = assay: Human spermatozoa capacitation after storage; details: 2 μg/mL in Sperm Preparation Medium, 37° C.
Protocol: as §1, with “4—Human” for “1—Human”, “capacitation” for “viability”, “for” for “during”, “Sperm capacitation” for “Viability”, “evaluating sperm phosphotyrosine levels after 180 minutes incubation in Sperm Capacitation Medium (LifeGlobal Europe, Brussels, Belgium).” for “the eosin-nigrosin staining method.”
as §2

Human spermatozoa [5] = assay: Human spermatozoa DNA fragmentation after storage (Halosperm kit); details: 2 μg/mL, 37° C., 120 minutes storage
Protocol: as §1, with “5—Human” for “1—Human”, “DNA fragmentation” for “viability”, “for” for “during”, “DNA fragmentation” for “Viability”, “using a Halosperm G2 kit (HALOTECH, Madrid, Spain).” for “by the eosin-nigrosin staining method.”
as §2

Human spermatozoa [6] = assay: Human spermatozoa protein carbonylation after storage (immunoblot); details: 2 μg/mL, 37° C., 120 minutes storage
Protocol: (§3) FIG. 6—Human spermatozoa oxidative damage to proteins (carbonylation) and lipids (peroxidation) after storage for 120 minutes at 37° C. Spermatozoa were stored in Sperm Preparation Medium (ORIGIO, Måløv, Denmark) not supplemented (Control) or supplemented with an mTOR activator (MHY 1485). Spermatozoa were also incubated with an mTOR inhibitor (Rapamycin; Rap) as a negative control. Protein carbonylation was assessed by immunobloting a specific @DNP antibody (SigmaAldrich, St. Louis, Mo., USA). Lipid peroxidation was assessed by immunobloting a specific @HNE antibody (Merck Millipore, Temecula, USA). […]
as §2

Human spermatozoa [7] = assay: Human spermatozoa lipid peroxidation after storage (immunoblot); details: 2 μg/mL, 37° C., 120 minutes storage
Protocol: as §3, §2

With `O=[N+]([O-])c1ccc(Nc2nc(N3CCOCC3)nc(N3CCOCC3)n2)cc1` [MHY 1485] the “percentage of viable sperm” value (Human spermatozoa [1]; 30 minutes storage, vs time zero) was “maintained the percentage of viable sperm at similar levels as those of time zero”, the sperm viability (Human spermatozoa [1]; 120 minutes storage) was “capable to preserve sperm viability” and the spermatozoa motility (Human spermatozoa [2]; 120 minutes storage) was “sustaining a higher motility”. The spermatozoa motility (Human spermatozoa [2]; during storage) was “capable to maintain sperm motile”, the consumption of hexoses (Human spermatozoa [3]; 30 minutes storage) was “no differences were observed” and the production of lactate (Human spermatozoa [3]; 30 minutes storage) was “no differences were observed”. The glucose consumption (Human spermatozoa [3]; 120 minutes storage) was “maintained”, the lactate production (Human spermatozoa [3]; 120 minutes storage) was “increased” and the capacitation potential (Human spermatozoa [4]; 120 minutes storage) was “capable to preserve sperm viability and its capacitation potential”. The capacitation potential (Human spermatozoa [4]; during storage) was “sustain its capacitation potential”, the “sperm DNA integrity (DNA fragmentation)” value (Human spermatozoa [5]) was “DNA remaining fully intact” and the “sperm protein oxidative damage (protein carbonylation)” value (Human spermatozoa [6]) was “not increased”. The “lipid oxidative damage (lipid peroxidation)” value (Human spermatozoa [7]) was “not increased”.
